Assay results as given in patent US11484601B2, “Targeting M2-like tumor-associated macrophages by using melittin-based proapoptotic peptide” (TWI[…]., priority 2018, dated 2022).

How the values were obtained:
CCL22 = test: Quantitative real-time PCR of lung tissue, CCL22; assay type: in vivo, mouse; conditions: vs PBS-treated group
Experimental: (§1) To measure the ability of MEL-dKLA to inhibit tumor metastasis, expression levels of CD44 known to interact with extracellular matrix ligand to promote metastasis and invasion and thus to be widely expressed in cancer, CCL22 known as M2-type macrophage marker, HIF-1α known as a marker of angiogenesis, metastasis and invasion, Ym1 as a marker of M2-type macrophage, and MMP-9 involved in the migration and settlement of tumor cells were measured via quantitative real-time PCR.
(§2) More specifically, RNA was extracted from lung tissue using an easy-BLUE RNA extraction kit (iNtRON Biotechnology, Korea). Then, cDNA was synthesized according to the manual for cyclescript reverse transcriptase (Bioneer, Korea). cDNA synthesis conditions were as follows: 15 seconds at 95, 10 seconds at 55, and 10 seconds at 72. Each reaction was conducted 3 times. […] Quantitative real-time PCR was performed using the SensiFAST SYBR no-Rox kit (Bioline, Korea).

LLC tumor cells = test: LLC lung cancer tumor model in C57BL/6 mice; assay type: in vivo, mouse; conditions: 175 nmol/kg intraperitoneally
Experimental: More specifically, C57BL/6 wild-type mice were purchased from DBL (Korea). LLC tumor cells were mixed with Matrigel (Corning, NY, USA) and then the mixture was injected into the right flank of mice (5×10^4 cells/mouse). Five days after tumor cell injection, the recombinant dKLA, MEL, and MEL-dKLA peptides were injected intraperitoneally thereto for 3 days for a total of three times (175 nmol/kg dosage/weight per each time). All tumor tissues were harvested 12 days after the injection. The animal experiment was approved by the Animal Management Committee of Kyunghee University [KHUASP(SE)-17-087]. The animals were managed via autonomous feeding of water and food under a 12-hour light/dark cycle environment without pathogens.

HIF-1α = test: Quantitative real-time PCR of lung tissue, HIF-1α; assay type: in vivo, mouse; conditions: vs PBS-treated group
Experimental: as §1, §2

[1] = test system: mitochondria of M2-type macrophage; test: Confocal localisation of TMR-conjugated peptides in mitochondria; assay type: cell-based, mouse; conditions: 1 μM TMR-conjugated peptide, 2 hours; for presence in mitochondria by image measurement: MitoTracker green
Experimental: In order to identify the invasion and location of MEL-dKLA into the mitochondria of M2-type macrophage, those were identified using fluorescence microscopy via staining. Further, PASCAL 5 LSM image measurement was performed for quantitative analysis.
More specifically, RAW264.7 macrophage was differentiated into M2 which in turn was incubated together with 1 μM TMR-conjugated dKLA, MEL or MEL-dKLA for 2 hours. The peptides that were not conjugated thereto were washed off, and then the cells were stained with 250 nM MitoTracker green (Invitrogen) for 30 minutes. After the staining, the cells were stained for 10 minutes in PBS to which 4 μg/mL 4′6-diamidino-2-phenylidole (DAPI; Sigma-Aldrich, MO, USA) was added. The stained cells were measured with a laser scanning confocal microscope (Carl Zeiss, Germany). The location of MEL-dKLA in the mitochondria was measured with an LSMS image meter (Carl Zeiss).

[2] = test system: 4T1-luciferase breast cancer cells; test: 4T1-luciferase tail vein metastaticity model in BALB/c mice; assay type: in vivo, mouse; conditions: 175 nmol/kg once every 3 days, 15 days after tail vein injection
Experimental: Additionally, 4T1-luciferase breast cancer cells (1×10^5) were injected into BALB/c mice through a tail vein in order to identify metastaticity of tumor cells. 3 days after the injection, 175 nmol/kg of each of PBS, dKLA, MEL and MEL-dKLA was injected into each group once every 3 days. 15 days after the cancer cell injection, D-luciferin as a substrate of luciferase enzyme was diluted to a concentration of 40 mg/ml, and then 100 μl thereof was administered to mice in an intraperitoneal administration mode, Then, reaction occurred for about 15 minutes. NightOwl (Berthold Technologies) was used in combination with photographs of mice to analyze the level of settlement and metastasis of cancer cells to the whole body and lungs.

Ym1 = test: Quantitative real-time PCR of lung tissue, Ym1; assay type: in vivo, mouse; conditions: vs PBS-treated group
Experimental: as §1, §2

[3] = test system: RAW264.7 cells differentiated into M2 cells; test: XF24 Extracellular Flux metabolic measurement (OCR, ECAR); assay type: cell-based, mouse; conditions: 1 μM peptide, compared to PBS-treated group
Experimental: […] assay was performed to measure the effect of MEL-dKLA on the metabolic action of mitochondria.
More specifically, the metabolic action was measured using an XF24 Extracellular Flux analyzer (Agilent, CA, USA). RAW264.7 cells were differentiated into M2 cells which were inoculated into XF-24 plates (3×10^4 cells/well). The next day, in order to minimize the potential stress due to changes in the situation, 1 μM of each peptide was applied thereto. Then, the cells were incubated in a 37° C. incubator under 5% CO2 condition. […] Then, the oxygen consumption rate (OCR) and the extracellular acidification rate (ECAR) were measured in real time.
Further, OCR was measured at a time point corresponding to 12 times. The basal state was measured at a time point corresponding to 3 times. Then, ATP-connected respiration after oligomycin addition was measured at a time point corresponding to further 3 times. Then, the maximum respiration after FCCP addition was measured at a time point corresponding to further 3 times. Then, a point at which non-mitochondrial respiration occurred after addition of Rot/AA was measured at a time point corresponding to remaining 3 times. Thus, the mitochondria respiration ability was measured. ECAR indicating the glycolysis rate was measured at the same time points.

| Molecule | expression of CCL22 (CCL22) | tumor growth (LLC tumor cells; three times, compared to PBS control) | expression of HIF-1α (HIF-1α) | correlation with mitochondria [1] | presence in mitochondria by image measurement [1] | metastaticity, luminescence of cancer cells throughout the whole body [2] | expression of Ym1 (Ym1) | basal respiration (baseline OCR) [3] | tumor size (LLC tumor cells) |
| --- | --- | --- | --- | --- | --- | --- | --- | --- | --- |
| d[KLAKLAKKLAKLAK] (D-amino acids) [dKLA, pro-apoptotic peptide KLA, used as control] | not significantly different | tumor steadily grew | not significantly different | did not have any association with mitochondria | a small amount of dKLA was coupled to the cells | measured at a high level throughout the body | increased significantly | no change in baseline OCR | – |
| CC[C@H](C)[C@H](NC(=O)CN)C(=O)NCC(=O)N[C@@H](C)C(=O)N[C@H](C(=O)N[C@@H](CC(C)C)C(=O)N[C@@H](CCCCN)C(=O)N[C@H](C(=O)N[C@@H](CC(C)C)C(=O)N[C@H](C(=O)N[C@H](C(=O)NCC(=O)N[C@@H](CC(C)C)C(=O)N1CCC[C@H]1C(=O)N[C@@H](C)C(=O)N[C@@H](CC(C)C)C(=O)N[C@H](C(=O)N[C@@H](CO)C(=O)N[C@@H](Cc1c[nH]c2ccccc12)C(=O)N[C@H](C(=O)N[C@@H](CCCCN)C(=O)N[C@@H](CCCNC(=N)N)C(=O)N[C@@H](CCCCN)C(=O)N[C@@H](CCCNC(=N)N)C(=O)N[C@@H](CCC(N)=O)C(=O)N[C@@H](CCC(N)=O)C(N)=O)[C@@H](C)CC)[C@@H](C)CC)[C@@H](C)O)[C@@H](C)O)C(C)C)C(C)C [MEL] | not significantly different | – | not significantly different | did not have any association with mitochondria | could not be identified therein | metastasis was reduced | no significant difference | no change in baseline OCR | significantly reduced |
